In article PMC13266999, “Designing Antibiotics with Inherent Resistance to Efflux as a Strategy to Revive Discovery against Multidrug-Resistant Pathogens” (Journal of Medicinal Chemistry, 2026):
Values after ≈ are worked out from the molar mass of the structure shown. Like-named read-outs stand apart in the source and are kept apart here.

How the values were obtained:
[1] = molecular target: T1, WT E. coli DNA gyrase (Escherichia coli, UniProt P0AES4+P0AES6); assay: DNA gyrase inhibition assay; format: biochemical
T1 construct: purchased Inspiralis Ltd. (Norwich, UK)
Description: Gyrase inhibition was determined through biochemical assay kits from Inspiralis Ltd. (Norwich, UK), according to manufacturer’s instructions, and as described previously. Briefly, 1U of enzyme was incubated with 0.5 μg of relaxed […] DNA in the presence of compound in 1% DMSO for 30 min at 37 °C. A control reaction contained no compound but still contained 1% DMSO. The reactions were stopped through Stop Buffer addition and the DNA separated through addition of chloroform/iso-amyl alcohol (24;1). Samples were run on a 1% agarose gel at 75 V for 2 h, which was then stained with 1 μg/mL ethidium bromide and visualized using a NuGenius gel imager (Syngene). The intensity of the supercoiled DNA band was quantified using Syngene software, and the inhibition of the supercoiling of the DNA by the compounds was calculated.

[2] = molecular target: CYP2C8 (Homo sapiens, UniProt P10632); assay: CYP inhibition; details: HLM, amodiaquine substrate
[3] = tested on: S. epidermidis; assay: MIC (microbroth dilution); format: cell-based, Staphylococcus epidermidis; details: Staphylococcus epidermidis, read-out: MIC
Description: All bacteria were maintained on tryptic soy agar (TSA), except Streptococcus spp., which were maintained on Columbia agar plates containing 5% horse blood. […] Bacteria were grown to stationary phase in liquid culture overnight, with shaking at 200 rpm, before being back diluted to the relevant starting concentration for each assay below. MICs were measured by the microbroth dilution method. […] Absorbance at OD600 was read on a CLARIOstar spectrophotometer (BMG Labtech) and the MIC was defined as the minimum concentration of compound where no visible growth was detected. […] MICs were also performed in the presence of the outer membrane permeator, polymyxin b nonapeptide (PMBN) following the same MIC method but with the following variation. The 2-fold dilution series of compound was prepared as above, then 50 μL of PMBN at a final concentration of 30 μg/mL was added to relevant wells, while 50 μL/well of blank media was added to the remaining wells. Bacteria were then added at 50 μL/well for a starting concentration as above. […] The MICs were read and defined as above. All animal procedures were performed by the contract research organization Pharmacology Discovery Services Taiwan in accordance with the Guide for the Care and Use of Laboratory Animals. The procedures were approved by the Institutional Ethics Committee of Pharmacology Discovery Services Taiwan, Ltd. (approval no. AB127662), in compliance with animal welfare legislation in Taiwan.

[4] = tested on: Enterococcus gallinarum; assay: MIC (microbroth dilution); format: cell-based; details: VanC (ATCC 49608)
Outline: (§1)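 Broth microdilution MICs were run in tryptic soy broth, or for Streptococcus spp. in cation-adjusted Mueller Hinton broth with 2.5% lysed horse blood, using overnight stationary-phase cultures back-diluted. MIC was the lowest concentration with no visible growth, with OD600 also read. Some MICs included PMBN at 30 μg/mL final.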

[5] = tested on: Staphylococcus saprophyticus; assay: MIC (microbroth dilution); format: cell-based; details: ATCC15305, ATCC 15305
Outline: as §1

[6] = tested on: Streptococcus intermedius; assay: MIC (microbroth dilution); format: cell-based; details: ATCC29663, ATCC 29663
Outline: as §1

[7] = tested on: Streptococcus mutans; assay: MIC (microbroth dilution); format: cell-based; details: ATCC25175, ATCC 25175
Outline: as §1

[8] = tested on: Streptococcus oralis; assay: MIC (microbroth dilution); format: cell-based; details: ATCC9811, ATCC 9811
Outline: as §1

[9] = tested on: Streptococcus pneumoniae; assay: MIC (microbroth dilution); format: cell-based; details: for MIC: Streptococcus pneumoniae
Outline: as §1

[10] = tested on: Streptococcus salivarius; assay: MIC (microbroth dilution); format: cell-based; details: ATCC13419, ATCC 13419
Outline: as §1

[11] = tested on: Streptococcus sanguinis; assay: MIC (microbroth dilution); format: cell-based; details: ATCC10556, ATCC 10556
Outline: as §1

[12] = tested on: A. baumannii; assay: A. baumannii efflux chequerboard assay; format: cell-based, Acinetobacter baumannii; details: for MIC: Acinetobacter baumannii
Description: Checkerboard assays were performed by preparing two separate 2-fold dilution series of compounds in two 96 well plates, one horizontally, one vertically. […] Plates were incubated at 37 C for 20 h and the absorbance (OD600) was read on a CLARIOstar spectrophotometer (BMG Labtech). The fractional inhibitory concentration was calculated as follows: ΣFIC = [(MIC of A in combination)/(MIC of A alone)] + [(MIC of B in combination)/(MIC of B alone)].

CYP2C8, sequence (P10632 whole entry): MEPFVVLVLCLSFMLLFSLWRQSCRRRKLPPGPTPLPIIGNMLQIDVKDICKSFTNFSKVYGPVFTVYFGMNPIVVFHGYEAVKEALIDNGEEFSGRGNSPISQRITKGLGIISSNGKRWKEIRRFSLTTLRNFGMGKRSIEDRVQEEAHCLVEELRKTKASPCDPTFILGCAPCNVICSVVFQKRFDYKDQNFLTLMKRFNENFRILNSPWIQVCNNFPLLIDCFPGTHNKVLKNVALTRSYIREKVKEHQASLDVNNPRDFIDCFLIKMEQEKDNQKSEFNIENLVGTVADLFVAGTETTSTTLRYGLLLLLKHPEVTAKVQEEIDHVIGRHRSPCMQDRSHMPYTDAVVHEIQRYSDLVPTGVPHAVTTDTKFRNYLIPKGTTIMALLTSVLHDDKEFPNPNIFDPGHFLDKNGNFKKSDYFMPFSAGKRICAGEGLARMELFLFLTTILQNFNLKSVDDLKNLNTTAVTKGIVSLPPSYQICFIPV
T1 sequence (P0AES4 whole entry, one chain of several): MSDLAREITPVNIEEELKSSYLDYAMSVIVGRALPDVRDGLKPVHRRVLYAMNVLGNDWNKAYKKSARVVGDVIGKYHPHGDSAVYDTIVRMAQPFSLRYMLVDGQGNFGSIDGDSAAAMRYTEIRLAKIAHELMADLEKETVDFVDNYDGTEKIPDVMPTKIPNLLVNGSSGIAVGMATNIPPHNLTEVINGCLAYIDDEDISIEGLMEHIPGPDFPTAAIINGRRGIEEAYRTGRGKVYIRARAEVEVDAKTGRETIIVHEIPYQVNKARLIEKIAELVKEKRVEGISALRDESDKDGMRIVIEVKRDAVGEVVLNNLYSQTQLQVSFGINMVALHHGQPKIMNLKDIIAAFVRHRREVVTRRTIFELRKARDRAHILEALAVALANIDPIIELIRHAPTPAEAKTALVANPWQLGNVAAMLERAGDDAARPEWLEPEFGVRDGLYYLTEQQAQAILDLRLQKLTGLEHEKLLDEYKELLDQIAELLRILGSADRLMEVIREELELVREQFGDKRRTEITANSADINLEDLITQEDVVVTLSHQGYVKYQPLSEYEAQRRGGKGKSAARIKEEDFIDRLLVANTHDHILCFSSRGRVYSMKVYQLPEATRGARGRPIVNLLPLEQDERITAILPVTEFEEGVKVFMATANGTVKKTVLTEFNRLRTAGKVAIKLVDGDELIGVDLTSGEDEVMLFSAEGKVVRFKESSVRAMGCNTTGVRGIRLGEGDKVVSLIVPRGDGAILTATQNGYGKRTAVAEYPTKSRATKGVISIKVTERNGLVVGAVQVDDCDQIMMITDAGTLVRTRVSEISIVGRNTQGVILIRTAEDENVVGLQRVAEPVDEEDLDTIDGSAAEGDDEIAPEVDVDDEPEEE

## C[C@H]1COc2c(N3CC[C@@H](Nc4ncccn4)C3)c(F)cc3c(=O)c(C(=O)O)cn1c23 [Compound 46, (S)-9-Fluoro-3-methyl-7-oxo-10-((R)-3-(pyrimidin-2-ylamino)pyrrolidin-1-yl)-2,3-dihydro-7H-[1,4]oxazino[2,3,4-ij]quinoline-6-carboxylic acid]
[1]
  IC50: 682 nM
[2]; 10 μM
  CYP2C8 inhibition: 3.1%

## Cc1cc(C)nc(N[C@@H]2CCN(c3c(F)cc4c(=O)c(C(=O)O)cn5c4c3OC[C@@H]5C)C2)n1 [Compound 50, (S)-10-((R)-3-((4,6-Dimethylpyrimidin-2-yl)amino)pyrrolidin-1-yl)-9-fluoro-3-methyl-7-oxo-2,3-dihydro-7H-[1,4]oxazino[2,3,4-ij]quinoline-6-carboxylic acid]
[3]; ATCC12228, ATCC 12228
  MIC: 0.03 µg/mL (≈ 0.0662 µM)
[3]; ATCC 51625 / MRSE, MRSE (ATCC 51625)
  MIC: 0.03 µg/mL (≈ 0.0662 µM)
[3]; NRS101
  MIC: 0.03 µg/mL (≈ 0.0662 µM)
[3]; GIS (NRS7)
  MIC: 0.5 µg/mL (≈ 1.1 µM)
[3]; GIS (NRS8)
  MIC: 1 µg/mL (≈ 2.21 µM)
[3]; GIS (NRS60)
  MIC: 0.06 µg/mL (≈ 0.132 µM)
[4]; Enterococcus gallinarum, ATCC 49608 / GALLINARUM, read-out: MIC
  MIC: 0.25 µg/mL (≈ 0.551 µM)
[4]
  MIC: 0.25 µg/mL (≈ 0.551 µM)
[5]
  MIC: 0.06 µg/mL (≈ 0.132 µM)
[6]
  MIC: 0.03 µg/mL (≈ 0.0662 µM)
[7]
  MIC: 0.03 µg/mL (≈ 0.0662 µM)
[8]
  MIC: 0.25 µg/mL (≈ 0.551 µM)
[9]; ATCC6301
  MIC: 0.125 µg/mL (≈ 0.276 µM)
[9]; ATCC49619
  MIC: 0.125 µg/mL (≈ 0.276 µM)
[9]; ATCC51916
  MIC: 0.125 µg/mL (≈ 0.276 µM)
[9]; ATCC700669, ST 23F (ATCC 700669), read-out: MIC
  MIC: 0.06 µg/mL (≈ 0.132 µM)
[9]; ATCC700673, MDR (ATCC 700673), read-out: MIC
  MIC: 0.06 µg/mL (≈ 0.132 µM)
[9]; ATCC700675, ATCC 700675, read-out: MIC
  MIC: 0.06 µg/mL (≈ 0.132 µM)
[9]; ATCC700676
  MIC: 0.125 µg/mL (≈ 0.276 µM)
[9]; ATCC 700677 / PRSP, PRSP (ATCC 700677), read-out: MIC
  MIC: 0.06 µg/mL (≈ 0.132 µM)
[9]; PRSP (TM532), read-out: MIC
  MIC: 0.06 µg/mL (≈ 0.132 µM)
[9]; including MDR and PRSP strains
  MIC range: 0.06 to 0.125 µg/mL
[10]
  MIC: 0.25 µg/mL (≈ 0.551 µM)
[11]
  MIC: 0.25 µg/mL (≈ 0.551 µM)
[2]; human, human liver microsomes, probe amodiaquine, CYP2C8 inhibition
  inhibition at 10 µM: 13.4%

## C[C@H]1COc2c(N3CCN(C)CC3)c(F)cc3c(=O)c(C(=O)O)cn1c23 [Levofloxacin, (S)-9-Fluoro-3-methyl-10-(4-methylpiperazin-1-yl)-7-oxo-2,3-dihydro-7H-[1,4]oxazino[2,3,4-ij]quinoline-6-carboxylic acid, reference compound]
[12]; A. baumannii ATCC 17978
  MIC +50 (0.25x MIC): 0.007 to 0.06 µg/mL
  MIC +50 (0.5x MIC): 0.009 to 0.06 µg/mL
[12]; A. baumannii AYE
  MIC +50 (0.25x MIC): 0.014 to 1.88 µg/mL
  MIC +50 (0.5x MIC): 0.012 to 0.9 µg/mL
[12]; ATCC17978, read-out: MIC alone
  MIC: 0.125 µg/mL
[12]; read-out: MIC alone
  MIC: 4 µg/mL
[1]; wild-type E. coli DNA gyrase, read-out: IC50 (converted)
  IC50: 526 nM
